Columns and labels:
CFA rat model = assay: Pharmacodynamic experiment: Frey's hair pain threshold in CFA rat model; type: in vivo, SD rats; conditions: oral 10 mg/kg; for Pain threshold value, Frey's hair: mean ± standard deviation
[1] = in vivo; cited from earlier work
[2] = Pharmacokinetic experiment: drug concentration in plasma of SD rats after oral administration (LC-MS/MS); conditions: 10 mg/kg; for AUC(0-t) / Cmax / Tmax / half-life: male, SD, rat, po; for AUClast (Plasma) / Cmax (Plasma) / t1/2 (Plasma) / tmax (Plasma): SD rats, oral
[3] = Pharmacokinetic experiment: drug concentration in brain tissue of SD rats after oral administration (LC-MS/MS); conditions: 10 mg/kg; for AUClast (Brain) / Cmax (Brain) / AUClast Ratio (Brain/Plasma) / t1/2 (Brain) / tmax (Brain): SD rats, oral; for AUClast (Brain) / Cmax (Brain) / t1/2 (Brain) / tmax (Brain): brain tissue; for Kp / Tmax / half-life: male, SD, rat, po; for Kp: brain and plasma; for Tmax / half-life: brain
[4] = 0 h (basal value before administration)

Structure (SMILES) | Pain threshold value, Frey's hair (CFA rat model; [4]) [g] | Pain threshold value, Frey's hair (CFA rat model; 0.25 h after administration) [g] | Pain threshold value, Frey's hair (CFA rat model; 2 h after administration) [g] | Pain threshold value, Frey's hair (CFA rat model; 6 h after administration) [g] | Pain threshold value, Frey's hair (CFA rat model; 24 h after administration) [g] | AUC(0-t) [2] [ng·h/mL] | Cmax [2] [ng/mL] | Tmax [2] [h] | half-life [2] [h] | AUClast (Brain) [3] [ng·h/g] | Cmax (Brain) [3] [ng/g] | Kp [3] | Tmax [3] [h] | half-life [3] [h] | AUClast (Plasma) [2] [ng·h/mL] | Cmax (Plasma) [2] [ng/mL] | t1/2 (Plasma) [2] [h] | tmax (Plasma) [2] [h] | AUClast Ratio (Brain/Plasma) [3] | t1/2 (Brain) [3] [h] | further results
C[C@@]12CCCCC[C@@H](Cc3ccc(O)cc31)[C@@H]2N [JK-2215D00, 13-amino-5,6,7,8,9,10,11,12-octahydro-5-methyl-5,11-methylenebenzocyclodecen-3-ol, reference compound] | 7.7 ± 1.1 | 9.8 ± 1.0 | 10.2 ± 2.7 | 9.2 ± 1.4 | 7.5 ± 1.8 | 232 | 193 | 1 | 1.41 | 267 | 221 | 1.15 | 1 | 2.05 |  |  |  |  |  |  | analgesic effect at 6 h after administration (CFA rat model; 6 h): not significant; analgesic effect relative to pethidine [1]: 5-9 times; average peak concentration at which adverse reactions occur [1]: 45 µg/L; blood concentration producing a potent analgesic effect [1]: 5 to 9 µg/L
COCCOCCOCCOCCOCCOCCOc1ccc2c(c1)C1(C)CCCCCC(C2)C1N (stereo not drawn) [JK-2215D01, Monomethoxyhexaethylene Glycol-Dezocine Conjugate] | 7.6 ± 0.8 | 8.7 ± 1.3 | 9.1 ± 1.3 | 8.7 ± 1.1 | 7.8 ± 1.4 |  |  |  |  | 925 | 147 |  |  |  | 1366 | 345 | 4.33 | 3 | 0.734 | 17.6 | tmax (Brain) [3]: 8 h
COCCOCCOCCOCCOCCOCCN[C@H]1[C@H]2CCCCC[C@]1(C)c1cc(O)ccc1C2 [JK-2215D02, Monomethoxyhexaethylene Glycol-Dezocine Conjugate] | 7.8 ± 0.8 | 10.3 ± 1.2 | 12.1 ± 1.5 | 13.2 ± 0.9 | 10.7 ± 1.5 |  |  |  |  | 993 | 166 |  |  |  | 1312 | 339 | 4.45 | 3 | 0.757 | 18.7 | tmax (Brain) [3]: 8 h
C[C@@]12CCCCC[C@@H](Cc3ccc(O)cc31)[C@@H]2NCCOCCOCCOCCOCCN[C@H]1[C@H]2CCCCC[C@]1(C)c1cc(O)ccc1C2 [JK-2215D03, Pentaethylene Glycol-Dezocine Conjugate] | 7.7 ± 1.4 | 9.2 ± 1.4 | 11.2 ± 2.0 | 11.4 ± 0.9 | 10.6 ± 2.0 | 1230 | 344 | 2 | 4.12 | 813 | 129 | 0.659 | 7 | 19.7 |  |  |  |  |  |  | 
